The values below come from patent publication US9902940B2, “Human blood-brain barrier endothelial cells derived from pluripotent stem cells and blood-brain barrier model thereof” (Wisconsin Alumni Research Foundation, priority 2010, dated 2018).

This data set has as its target p-glycoprotein (Homo sapiens, UniProt P08183).

Each structure is given as a SMILES string.

p-glycoprotein, sequence (P08183 whole entry): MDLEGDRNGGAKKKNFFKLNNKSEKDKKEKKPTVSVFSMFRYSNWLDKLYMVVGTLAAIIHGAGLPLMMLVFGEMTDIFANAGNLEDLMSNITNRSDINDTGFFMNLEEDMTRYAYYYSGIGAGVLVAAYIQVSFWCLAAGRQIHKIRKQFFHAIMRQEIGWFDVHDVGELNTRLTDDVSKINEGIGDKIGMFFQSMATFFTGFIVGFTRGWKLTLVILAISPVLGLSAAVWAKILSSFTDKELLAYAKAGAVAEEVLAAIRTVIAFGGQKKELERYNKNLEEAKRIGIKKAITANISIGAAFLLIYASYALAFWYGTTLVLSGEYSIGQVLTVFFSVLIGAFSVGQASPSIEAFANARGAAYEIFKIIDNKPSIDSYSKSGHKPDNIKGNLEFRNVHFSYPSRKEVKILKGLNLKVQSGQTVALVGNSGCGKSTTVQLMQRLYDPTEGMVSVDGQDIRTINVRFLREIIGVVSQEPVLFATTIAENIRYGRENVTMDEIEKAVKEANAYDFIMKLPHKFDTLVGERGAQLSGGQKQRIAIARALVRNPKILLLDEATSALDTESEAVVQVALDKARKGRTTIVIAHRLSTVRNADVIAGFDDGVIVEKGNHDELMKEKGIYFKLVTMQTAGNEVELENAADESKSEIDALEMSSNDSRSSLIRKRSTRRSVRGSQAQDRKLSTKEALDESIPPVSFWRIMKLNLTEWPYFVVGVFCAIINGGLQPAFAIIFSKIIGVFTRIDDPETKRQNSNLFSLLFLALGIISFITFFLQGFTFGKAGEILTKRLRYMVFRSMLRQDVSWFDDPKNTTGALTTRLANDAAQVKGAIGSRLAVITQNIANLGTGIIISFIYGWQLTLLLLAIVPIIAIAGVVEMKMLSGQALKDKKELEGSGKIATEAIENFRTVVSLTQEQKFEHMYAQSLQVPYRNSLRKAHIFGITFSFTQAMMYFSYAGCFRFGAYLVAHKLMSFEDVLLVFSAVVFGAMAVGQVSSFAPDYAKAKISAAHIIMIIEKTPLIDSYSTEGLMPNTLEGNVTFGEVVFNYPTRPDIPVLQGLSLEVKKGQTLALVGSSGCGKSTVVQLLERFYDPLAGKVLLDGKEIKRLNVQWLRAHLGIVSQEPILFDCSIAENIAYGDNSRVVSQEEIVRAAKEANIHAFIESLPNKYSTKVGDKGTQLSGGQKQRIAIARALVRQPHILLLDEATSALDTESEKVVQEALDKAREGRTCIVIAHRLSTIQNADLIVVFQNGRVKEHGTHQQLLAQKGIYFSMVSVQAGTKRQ

On to `CN(C)C(=O)CCSC(SCCC(=O)O)c1cccc(/C=C/c2ccc3ccc(Cl)cc3n2)c1` (stereo not shown) [MK 571], for which the “transport of rhodamine 123 from the apical to basolateral chamber in the presence of inhibitor” value was “not”.
